From PubChem BioAssay AID2060332 (Molecular Pharmacology Branch, DTP, NCI, 2025)

System: LG0567-F671-PDC multi-cell spheroid viability
Assay: Anticancer human tumor LG0567-F671-PDC patient-derived lung adenocarcinoma cell line growth inhibition [IpAb]
Conditions: for IC50: curve of first compound; for viability, T/C: stronger effect = lower value; active means viability on the fitted dose curve at most 10% of control; inactive means the rest
Method in brief: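 Combinations with ipatasertib or abemaciclib were tested on tumour spheroids holding HUVEC (25%) and MSC (15%) alongside 60% malignant cells. Top concentration was at or near clinical Cmax (10 microM if undefined), descending in half-log steps.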

[1] = second compound 0.01 µM, first compound 0.0316 µM
[2] = second compound 0.01 µM, first compound 0.1 µM
[3] = second compound 0.01 µM, first compound 0.316 µM
[4] = second compound 0.01 µM, first compound 1 µM
[5] = second compound 0.01 µM, first compound 3.16 µM
[6] = second compound 0.01 µM, first compound 10 µM
[7] = second compound 0.0316 µM, first compound 0.0316 µM
[8] = second compound 0.0316 µM, first compound 0.1 µM
[9] = second compound 0.0316 µM, first compound 0.316 µM
[10] = second compound 0.0316 µM, first compound 1 µM
[11] = second compound 0.0316 µM, first compound 3.16 µM
[12] = second compound 0.0316 µM, first compound 10 µM
[13] = second compound 0.1 µM, first compound 0.0316 µM
[14] = second compound 0.1 µM, first compound 0.1 µM
[15] = second compound 0.1 µM, first compound 0.316 µM
[16] = second compound 0.1 µM, first compound 1 µM
[17] = second compound 0.1 µM, first compound 3.16 µM
[18] = second compound 0.1 µM, first compound 10 µM
[19] = second compound 0.316 µM, first compound 0.0316 µM
[20] = second compound 0.316 µM, first compound 0.1 µM
[21] = second compound 0.316 µM, first compound 0.316 µM
[22] = second compound 0.316 µM, first compound 1 µM
[23] = second compound 0.316 µM, first compound 3.16 µM
[24] = second compound 0.316 µM, first compound 10 µM
[25] = second compound 1 µM, first compound 0.0316 µM
[26] = second compound 1 µM, first compound 0.1 µM
[27] = second compound 1 µM, first compound 0.316 µM
[28] = second compound 1 µM, first compound 1 µM
[29] = second compound 1 µM, first compound 3.16 µM
[30] = second compound 1 µM, first compound 10 µM
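Further: viability read after 7 days of drug exposure.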
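Wherever viability, T/C is given: 100% = DMSO vehicle control luminescence.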

C=CCn1c(=O)c2cnc(Nc3ccc(N4CCN(C)CC4)cc3)nc2n1-c1cccc(C(C)(C)O)n1 + CCN1CCN(Cc2ccc(Nc3ncc(F)c(-c4cc(F)c5nc(C)n(C(C)C)c5c4)n3)nc2)CC1
inactive: viability, T/C [1] 95% | viability, T/C [2] 68.1% | viability, T/C [3] 66.8% | viability, T/C [4] 48.4% | viability, T/C [5] 31.9% | viability, T/C [6] 32% | viability, T/C [7] 94.2% | viability, T/C [8] 52.9% | viability, T/C [9] 54.9% | viability, T/C [10] 48.5% | viability, T/C [11] 36.4% | viability, T/C [12] 23.8% | viability, T/C [13] 64.2% | viability, T/C [14] 50.4% | viability, T/C [15] 51.2% | viability, T/C [16] 51.1% | viability, T/C [17] 35% | viability, T/C [18] 23.8% | viability, T/C [19] 57.8% | viability, T/C [20] 52.9% | viability, T/C [21] 46.9% | viability, T/C [22] 45.6% | viability, T/C [23] 35.8% | viability, T/C [24] 27.9% | viability, T/C [25] 63.8% | viability, T/C [26] 59.8% | viability, T/C [27] 49.2% | viability, T/C [28] 43.9% | viability, T/C [29] 33.9% | viability, T/C [30] 29.4%
359 nM: IC50 (second compound 1 µM)
518 nM: IC50 (second compound 0.1 µM)
240 nM: IC50 (second compound 0.316 µM)
310 nM: IC50 (second compound 0.0316 µM)
800 nM: IC50 (second compound 0.01 µM)

CC(C)n1nc(-c2ccc3oc(N)nc3c2)c2c(N)ncnc21 + CCN1CCN(Cc2ccc(Nc3ncc(F)c(-c4cc(F)c5nc(C)n(C(C)C)c5c4)n3)nc2)CC1
30.5 nM: IC50 (second compound 0.01 µM)
11.6 nM: IC50 (second compound 0.0316 µM)
6.59 nM: IC50 (second compound 1 µM)
13.5 nM: IC50 (second compound 0.1 µM)
inactive: viability, T/C (second compound 0.01 µM, first compound 0.000316 µM) 111% | viability, T/C (second compound 0.01 µM, first compound 0.001 µM) 88.4% | viability, T/C (second compound 0.01 µM, first compound 0.00316 µM) 65.4% | viability, T/C (second compound 0.01 µM, first compound 0.01 µM) 70.2% | viability, T/C [1] 50% | viability, T/C [2] 38.6% | viability, T/C (second compound 0.0316 µM, first compound 0.000316 µM) 86.8% | viability, T/C (second compound 0.0316 µM, first compound 0.001 µM) 80.8% | viability, T/C (second compound 0.0316 µM, first compound 0.00316 µM) 73.8% | viability, T/C (second compound 0.0316 µM, first compound 0.01 µM) 52.9% | viability, T/C [7] 34.9% | viability, T/C [8] 35% | viability, T/C (second compound 0.1 µM, first compound 0.000316 µM) 65.5% | viability, T/C (second compound 0.1 µM, first compound 0.001 µM) 70.2% | viability, T/C (second compound 0.1 µM, first compound 0.00316 µM) 47.8% | viability, T/C (second compound 0.1 µM, first compound 0.01 µM) 55.6% | viability, T/C [13] 46.7% | viability, T/C [14] 29.1% | viability, T/C (second compound 0.316 µM, first compound 0.000316 µM) 66.4% | viability, T/C (second compound 0.316 µM, first compound 0.001 µM) 53.2% | viability, T/C (second compound 0.316 µM, first compound 0.00316 µM) 69.8% | viability, T/C (second compound 0.316 µM, first compound 0.01 µM) 38.5% | viability, T/C [19] 39.6% | viability, T/C [20] 36.8% | viability, T/C (second compound 1 µM, first compound 0.000316 µM) 57.1% | viability, T/C (second compound 1 µM, first compound 0.001 µM) 61.7% | viability, T/C (second compound 1 µM, first compound 0.00316 µM) 56.3% | viability, T/C (second compound 1 µM, first compound 0.01 µM) 40.9% | viability, T/C [25] 43.6% | viability, T/C [26] 27.9%
6.93 nM: IC50 (second compound 0.316 µM)

CC1(C)CCC(CN2CCN(c3ccc(C(=O)NS(=O)(=O)c4ccc(NCC5CCOCC5)c([N+](=O)[O-])c4)c(Oc4cnc5[nH]ccc5c4)c3)CC2)=C(c2ccc(Cl)cc2)C1 + CCN1CCN(Cc2ccc(Nc3ncc(F)c(-c4cc(F)c5nc(C)n(C(C)C)c5c4)n3)nc2)CC1
inactive: viability, T/C [1] 96.5% | viability, T/C [2] 123% | viability, T/C [3] 106% | viability, T/C [4] 105% | viability, T/C [5] 119% | viability, T/C [6] 25.9% | viability, T/C [7] 63.6% | viability, T/C [8] 95.8% | viability, T/C [9] 87.1% | viability, T/C [10] 72.2% | viability, T/C [11] 83.2% | viability, T/C [12] 22.6% | viability, T/C [13] 80.5% | viability, T/C [14] 86.9% | viability, T/C [15] 83.2% | viability, T/C [16] 84.5% | viability, T/C [17] 83% | viability, T/C [18] 22.2% | viability, T/C [19] 69.6% | viability, T/C [20] 76.1% | viability, T/C [21] 80.8% | viability, T/C [22] 76.9% | viability, T/C [23] 73.3% | viability, T/C [24] 11.4% | viability, T/C [25] 69.6% | viability, T/C [26] 80.3% | viability, T/C [27] 64% | viability, T/C [28] 68.8% | viability, T/C [29] 67.1% | viability, T/C [30] 17.5%
4880 nM: IC50 (second compound 0.316 µM)
7190 nM: IC50 (second compound 0.01 µM)
5800 nM: IC50 (second compound 0.0316 µM)
4690 nM: IC50 (second compound 1 µM)
5910 nM: IC50 (second compound 0.1 µM)

CCCS(=O)(=O)Nc1ccc(F)c(C(=O)c2c[nH]c3ncc(-c4ccc(Cl)cc4)cc23)c1F + CCN1CCN(Cc2ccc(Nc3ncc(F)c(-c4cc(F)c5nc(C)n(C(C)C)c5c4)n3)nc2)CC1
inactive: viability, T/C [1] 104% | viability, T/C [2] 140% | viability, T/C [3] 112% | viability, T/C [4] 145% | viability, T/C [5] 169% | viability, T/C [6] 168% | viability, T/C [7] 93.3% | viability, T/C [8] 105% | viability, T/C [9] 140% | viability, T/C [10] 121% | viability, T/C [11] 156% | viability, T/C [12] 115% | viability, T/C [13] 77.4% | viability, T/C [14] 98.8% | viability, T/C [15] 91.6% | viability, T/C [16] 113% | viability, T/C [17] 154% | viability, T/C [18] 92.1% | viability, T/C [19] 68.8% | viability, T/C [20] 86.3% | viability, T/C [21] 91.7% | viability, T/C [22] 108% | viability, T/C [23] 80.1% | viability, T/C [24] 55.4% | viability, T/C [25] 66.9% | viability, T/C [26] 88.3% | viability, T/C [27] 73.7% | viability, T/C [28] 70.4% | viability, T/C [29] 76.9% | viability, T/C [30] 65.1%
> 10000 nM: IC50 (second compound 0.01 µM) | IC50 (second compound 0.0316 µM) | IC50 (second compound 0.1 µM) | IC50 (second compound 0.316 µM) | IC50 (second compound 1 µM)

Cn1cnc2c(F)c(Nc3ccc(Br)cc3Cl)c(C(=O)NOCCO)cc21 + CCN1CCN(Cc2ccc(Nc3ncc(F)c(-c4cc(F)c5nc(C)n(C(C)C)c5c4)n3)nc2)CC1
inactive: viability, T/C (second compound 0.01 µM, first compound 0.00949 µM) 55% | viability, T/C (second compound 0.01 µM, first compound 0.03 µM) 48% | viability, T/C (second compound 0.01 µM, first compound 0.0949 µM) 28.8% | viability, T/C (second compound 0.01 µM, first compound 0.3 µM) 22.5% | viability, T/C (second compound 0.01 µM, first compound 0.949 µM) 19.9% | viability, T/C (second compound 0.01 µM, first compound 3 µM) 13.4% | viability, T/C (second compound 0.0316 µM, first compound 0.00949 µM) 53.5% | viability, T/C (second compound 0.0316 µM, first compound 0.03 µM) 36.4% | viability, T/C (second compound 0.0316 µM, first compound 0.0949 µM) 27.9% | viability, T/C (second compound 0.0316 µM, first compound 0.3 µM) 17.3% | viability, T/C (second compound 0.0316 µM, first compound 0.949 µM) 20.2% | viability, T/C (second compound 0.0316 µM, first compound 3 µM) 13.5% | viability, T/C (second compound 0.1 µM, first compound 0.00949 µM) 47.5% | viability, T/C (second compound 0.1 µM, first compound 0.03 µM) 38.5% | viability, T/C (second compound 0.1 µM, first compound 0.0949 µM) 28% | viability, T/C (second compound 0.1 µM, first compound 0.3 µM) 17.4% | viability, T/C (second compound 0.1 µM, first compound 0.949 µM) 17% | viability, T/C (second compound 0.1 µM, first compound 3 µM) 10.6% | viability, T/C (second compound 0.316 µM, first compound 0.00949 µM) 48.8% | viability, T/C (second compound 0.316 µM, first compound 0.03 µM) 29.9% | viability, T/C (second compound 0.316 µM, first compound 0.0949 µM) 33.6% | viability, T/C (second compound 0.316 µM, first compound 0.3 µM) 24.7% | viability, T/C (second compound 0.316 µM, first compound 0.949 µM) 17.4% | viability, T/C (second compound 0.316 µM, first compound 3 µM) 11.4% | viability, T/C (second compound 1 µM, first compound 0.00949 µM) 45% | viability, T/C (second compound 1 µM, first compound 0.03 µM) 35.2% | viability, T/C (second compound 1 µM, first compound 0.0949 µM) 29.6% | viability, T/C (second compound 1 µM, first compound 0.3 µM) 27.5% | viability, T/C (second compound 1 µM, first compound 0.949 µM) 18.6% | viability, T/C (second compound 1 µM, first compound 3 µM) 11.3%
19.1 nM: IC50 (second compound 0.01 µM)
11.9 nM: IC50 (second compound 0.0316 µM)
< 9.49 nM: IC50 (second compound 0.1 µM) | IC50 (second compound 0.316 µM) | IC50 (second compound 1 µM)
